From patent US6015820A, “4-Aryl-thio-pyridin-2(1H)-ones, medicines containing them and their uses in the treatment of illnesses linked to HIV” (priority 1995, dated 2000)
pIC50: −log10 of the molar value. Read-outs that look alike come from different tables or passages of the source.

What was measured:
HIV-1 IIIB = test: anti-HIV-1 activity, HIV-1 IIIB/PBMC; format: cell-based; settings: Human immunodeficiency virus 1, Table 4
Experimental: (§1) The virus production was measured by quantifying the activity of the inverse transcriptase associated with viral particles released into the culture supernatant. In short, cells were infected with 100 TCID50 for 30 minutes; after adsorption of the virus, unbound particles were removed by two washings and the cells were cultivated in the presence of different concentrations of the compounds tested for 5 days before determining the viral production. The concentration inhibiting 50% of the viral multiplication (IC50) came from the computer plot of the median effect of the dose effect results (Chou et al. Elsevier Science Publishers, Cambridge U.K. (1985), 19-28).
(§2) Thirty two compounds according to the invention were studied for their anti-HIV-1 biological activity. […] This compound was then tested with other colonies and other cell lines (Table 4).

IT of HIV-2 = IT of HIV-2 (Human immunodeficiency virus type 2 (ISOLATE ROD), UniProt P04584); test: inhibition of the inverse transcriptase of HIV-2; format: biochemical; settings: at concentrations at which the IT of HIV-1 was well inhibited (FIG. 9)
Experimental: The system for the expression of the IT of HIV-2 in E.coli (B. Muller et al. (1991 J. Biol. Chem. 266, 14708-14713) was provided by Dr. R. Goody. The IT of the HIV-2 was purified in the same way as the IT of the HIV-1.
(§3) Incubation was carried out at 37° C. for 10 minutes in the presence of various matrix-primers.
(§4) a) Poly C-oligo dG: the reaction mixture contained a final volume of 0.05 ml, Tris-HCl 50 mM pH 8.0, MgCl2 5 mM, dithiothreitol 4 mM, 0.48 A260 /ml of poly C-oligo dG (5:1), 1.0 μCi of [^3 H]dGTP (28 Ci/mmole), dGTP 2 μM, KCl 80 mM, 1 μg of bovine serum albumin and IT 20-50 nM.
(§5) b) Poly A-oligo dT: the same conditions as in a), except that 0.48 A260 /ml of poly A-oligo dT (5:1), 0.5 μCi of [^3 H]dTTP (46 Ci/mmole), dTTP 20 μM were used.
(§6) The reactions were stopped by adding in the cold 1 ml of 10% trichloroacetic acid plus sodium pyrophosphate 0.1 M. The precipitates were filtered through nitrocellulose membranes, washed with 2% trichloroacetic acid, dried and counted in a PPO/POPOP/toluene scintillation mixture.
(§7) All the compounds were dissolved in dimethyl#sulphoxide (DMSO). The test samples were prepared in the presence of the same final concentration of DMSO. IC50 is the concentration required to inhibit the activity of the IT of the recombinant HIV-1 by 50%.

IT of recombinant HIV-1 = target: T1, IT of recombinant HIV-1 (Human immunodeficiency virus type 1 group M subtype B, UniProt P03369); test: inhibition of the inverse transcriptase of recombinant HIV-1; format: biochemical
T1 construct: purify the IT enzyme of the recombinant HIV-1; made in house; host or cells: yeast cells transformed with the pAB 24/IT-4 vector
Experimental: Yeast cells transformed with the pAB 24/IT-4 vector were used to purify the IT enzyme of the recombinant HIV-1 as described by Sallafranque-Andreola et al. (1989 Eur. J. Biochem. 184, 364-374).
as §3, §4, §5, §6, §7

[1] = test system: HIV-1 4200 type E (primary isolate); test: anti-HIV-1 activity, HIV-1 4200 type E (primary isolate)/PBMC; format: cell-based; settings: Human immunodeficiency virus 1, Table 4
Experimental: as §1, §2

[2] = test system: HIV-1 resistant to Nevirapine (N119); test: microbe, parasite or virus in culture; format: cell-based; settings: for pIC50: Human immunodeficiency virus 1, CEM-SS
Experimental: The effects of the compounds were evaluated on the replication of HIV-1 (see Table 2) on CEM-SS cells (cell lines of the lymphocytic lineage) strongly infected with HIV-1 LAI as described by Moog et al. (Antiviral Research (1994), 24, 275-288). The CEM-SS and the HIV-1 resistant to Nevirapine (N119) carrying a point mutation at codon 181 of the IT, were supplied respectively by P. NARA and D. RICHMAN through the intermediary of the AIDS Research and Reference Reagent Program, Division of AIDS, NIAID, NIH (USA) (Catalogue references : No. 776 and No. 1392).
as §1

IT of HIV-2, sequence (P04584 613-1171): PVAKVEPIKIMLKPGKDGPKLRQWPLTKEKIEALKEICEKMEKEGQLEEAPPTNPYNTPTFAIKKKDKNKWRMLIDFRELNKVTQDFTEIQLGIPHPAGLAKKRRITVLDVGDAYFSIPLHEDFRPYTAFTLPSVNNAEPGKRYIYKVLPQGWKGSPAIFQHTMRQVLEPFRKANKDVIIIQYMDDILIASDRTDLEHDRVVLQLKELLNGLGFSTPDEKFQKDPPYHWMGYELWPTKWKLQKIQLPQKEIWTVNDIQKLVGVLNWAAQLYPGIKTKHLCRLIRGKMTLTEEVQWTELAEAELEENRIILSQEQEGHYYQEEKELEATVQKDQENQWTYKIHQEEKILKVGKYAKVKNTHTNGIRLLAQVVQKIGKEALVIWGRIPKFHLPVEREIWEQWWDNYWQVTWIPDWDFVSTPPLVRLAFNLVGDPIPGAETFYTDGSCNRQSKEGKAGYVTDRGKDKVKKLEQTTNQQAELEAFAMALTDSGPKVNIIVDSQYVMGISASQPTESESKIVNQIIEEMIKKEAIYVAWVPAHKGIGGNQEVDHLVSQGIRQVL

## CCc1c(C)[nH]c(=O)c([N+](=O)[O-])c1Sc1cc(C)cc(C)c1 [Compound 7c, 5-ethyl-6-methyl-3-nitro-4-(3', 5'-dimethylphenyl)thio-pyridin-2(1H)-one]
HIV-1 IIIB
  pIC50: > 10.52
IT of HIV-2
  effect on activity of the IT of HIV-2: not affected
IT of recombinant HIV-1
  pIC50: 7.52
IT of recombinant HIV-1; FIG. 9
  effect on activity of the IT of HIV-1 in HIV-1/HIV-2 comparison: well inhibited
IT of recombinant HIV-1; poly C-oligo dG compared with poly A-oligo dT (FIG. 9)
  IT inhibition according to matrix-primer couple: Better inhibition was obtained in the presence of poly C-oligo dG compared with poly A-oligo dT
[1]
  pIC50: > 10.00
[2]
  pIC50: 7.64
[2]; read-out: IC50, strain resistant to Nevirapine
  pIC50: 6.59
[2]; Table 3, strain resistant to Nevirapine
  SI (selectivity index): > 38
